Legend:
[1] = titre of components in the muco-adhesive solution on storage at room temperature; format: physicochemical
[2] = storage stability of verbascoside with and without water; format: physicochemical
Excerpt: Therefore, in a more preferred embodiment, the ternary association of the invention is formulated in dry form or with liquid or semi-solid anhydrous ingredients. If the final formulation requires one or more aqueous ingredients, verbascoside is preferably packaged separately in conditions of absence of water (or in the dry state or with semi-solid/liquid anhydrous ingredients) and stored in that form; a preferred semi-solid form is represented by glycerogel, or gelled semi-solid and non hydrated forms with a glycerin base; upon use, verbascoside is combined with the aqueous components, obtaining the final aqueous formulation, ready for administration. The separate packaging of the above ingredients is achievable by generally known means, e.g. double chamber bags, twin-bag double chamber dispensers, etc.

periodontitis model = settings: rats, cited from earlier work
[3] = target: T1, iNOS (inducible nitric oxide synthase) (Homo sapiens, UniProt P35228); settings: THP-1 cells stimulated with LPS and IFN-γ; cited from earlier work
T1 construct: human THP-1 leukemia cells stimulated with pro-inflammatory stimuli (e.g. LPS and IFN-γ) in which the activity of iNOS is overexpressed; endogenous in cells; host or cells: human THP-1 leukemia cells stimulated with LPS and IFN-γ

[4] = test system: inflammatory chemokines such as GM-GCSF, IL-8, IP-10 and MCP-1; settings: human keratinocytes stimulated with TNFα or IFN-γ; cited from earlier work
[5] = spectrophotometric test with 2,2-diphenyl-1-picrylhydrazyl (DPPH), radical scavenging activity; format: biochemical; settings: for radical scavenging activity (in words): DPPH test, summary of Tables 1 and 2
Experimental: Evidence of the radical scavenging activity of the main ingredients of the formulations prepared, VB, HANa, GPI, were obtained with in vitro tests.
The anti-radical activity of VB alone and in combination with HANa and GPI was analyzed by spectrophotometric test with 2,2-diphenyl-1-picrylhydrazyl (DPPH). The samples were prepared respecting the proportions provided in the formulation.

[6] = muco-adhesive solution of Example 6
[7] = muco-adhesive solution of Example 7, solution pH 4.4, viscosity 145 mPas s
[8] = muco-adhesive solution of Example 8, solution pH 4.4, viscosity 60 mPas s
[9] = muco-adhesive solution of Example 9, iota carrageenan solution, pH 4.3

Compound | % titre at 30 days at room temperature [1, 6] [%] | Initial % titre [1, 6] [%] | % titre at 10 days at room temperature [1, 7] [%] | Initial % titre [1, 7] [%] | % titre at 10 days at room temperature [1, 8] [%] | Initial % titre [1, 8] [%] | % titre at 30 days at room temperature [1, 9] [%] | Initial % titre [1, 9] [%] | radical scavenging activity (in words) [5] | also measured
C[C@@H]1O[C@@H](O[C@@H]2[C@@H](O)[C@H](OCCc3ccc(O)c(O)c3)O[C@H](CO)[C@H]2OC(=O)/C=C/c2ccc(O)c(O)c2)[C@H](O)[C@H](O)[C@H]1O [VB, Verbascoside] | 92.5 | 99.6 | 98.71 | 101.68 | 98.55 | 102.2 | 92.9 | 101.7 | clear | time for which a high titre is maintained ([1]; after extemporaneous incorporation with the aqueous component, room temperature): at least 30 days; stability ([2]; in an aqueous medium): particularly labile; stability upon storage ([2]; stored in the absence of water): particularly stable; parameters of inflammation (periodontitis model; oral administration 2 mg/kg/day for 8 days): significantly reduces; anti-inflammatory effect (periodontitis model; periodontitis model): marked anti-inflammatory effect; expression and activity of iNOS and superoxide radicals [3]: significant decrease; inflammatory chemokines such as GM-GCSF, IL-8, IP-10 and MCP-1 [4]: reduces in a dose-dependent manner; Radical scavenging activity (%) ([5]; VB concentration 3.3 μM (2.1 mg/L)): 15%; Radical scavenging activity (%) ([5]; VB concentration 6.6 μM (4.1 mg/L)): 24%; Radical scavenging activity (%) ([5]; VB concentration 13.2 μM (8.3 mg/L)): 42%; Radical scavenging activity (%) ([5]; VB concentration 26.5 μM (16.6 mg/L)): 76%; Radical scavenging activity (%) ([5]; VB concentration 53 μM (33.1 mg/L)): 95%; Radical scavenging activity (%) ([5]; concentration 15.6 mg/L): 74%
Hyaluronic acid sodium salt [HANa] | 100.7 | 101.3 | 96.26 | 99.32 | 96.26 | 98.48 | 114.9 | 114.6 | essentially showed no activity | Radical scavenging activity (%) ([5]; concentration 62.4 mg/L): 1%
O=P(O)(OC[C@H](O)CO)OC1[C@H](O)[C@H](O)C(O)[C@H](O)[C@H]1O (stereo partly drawn) [GPI, Inositol glycerophosphate] | 98.2 | 99.5 | 102.88 | 99.63 | 102.24 | 98.17 | 100.8 | 100.6 | essentially showed no activity | Radical scavenging activity (%) ([5]; concentration 78 mg/L): 1%

Source: patent US20160113960A1, “TOPICAL PREPARATIONS COMPRISING HYALURONIC ACID, VERBASCOSIDE AND GLYCEROPHOSPHOINOSITOL” (ALTERGON S.A., priority 2013, published 2016)
